Source: publication PMC11490426, “Structure-activity relationship of amino acid analogs to probe the binding pocket of sodium-coupled neutral amino acid transporter SNAT2” (Amino Acids, 2024)
Where a name gives a salt, the structure may show the parent alone.

Assays:
[1] = Stability in aqueous solution by HPLC-UV; assay type: physicochemical; settings: 1 mM in ultrapure water, room temperature, over 3 days
From the text: The resulting chromatograms were integrated and the area under the curve (AUC) of the standard samples was used to generate standard curves to determine the concentration of AAs and analogs in the cell samples. The pooled standard curves and example chromatograms can be seen in the SI (Figs. S2, S3). Amino acid levels detected in the background cell samples were subtracted from the other cell samples. L-Alanine benzyl ester only generated a peak with an equal retention time as L-alanine. It was assessed that the addition of OPA reagent increased the hydrolysis of the ester, thus only creating the L-alanine OPA derivative. […] Thus, the L-alanine peak was used to measure the presence of L-alanine benzyl ester in samples.
Fig. S4 HPLC-UV chromatograms of L-alanine benzyl ester and benzyl alcohol dissolved in ultrapure water. The samples were analyzed using a Waters 2695 HPLC system connected to a Waters 2487 Dual λ Absorbance Detector (Waters Corporation, MA, USA). The peaks were separated using a Sunfire C18 column (4.6 x 150 mm, 3.5 µm, Waters Corporation, MA, USA) at 45 °C and with a 0.7 ml/min flow of 70% mobile phase A (90/10% H2O/MeCN + 0.1% trifluoroacetic acid (TFA)) and 30% mobile phase B (10/90% H2O/MeCN + 0.1% TFA). 10 µL samples were injected and the peaks were detected at 254 nm. […]

[2] = biological target: T1, SNAT2 (Homo sapiens, UniProt Q96QD8); test: Intracellular amino acids and analogs quantified by OPA derivatization and HPLC-Fl after uptake in PC-3 cells; assay type: cell-based; settings: 0.4 mM compound, 30 min uptake, pH 7.4
T1 construct: hyperosmotically treated PC-3 cells, known to upregulate SNAT2; endogenous in cells; host or cells: PC-3 prostate cells exposed to hyperosmotic medium for 24 h
T1 sequence (Q96QD8 1-506): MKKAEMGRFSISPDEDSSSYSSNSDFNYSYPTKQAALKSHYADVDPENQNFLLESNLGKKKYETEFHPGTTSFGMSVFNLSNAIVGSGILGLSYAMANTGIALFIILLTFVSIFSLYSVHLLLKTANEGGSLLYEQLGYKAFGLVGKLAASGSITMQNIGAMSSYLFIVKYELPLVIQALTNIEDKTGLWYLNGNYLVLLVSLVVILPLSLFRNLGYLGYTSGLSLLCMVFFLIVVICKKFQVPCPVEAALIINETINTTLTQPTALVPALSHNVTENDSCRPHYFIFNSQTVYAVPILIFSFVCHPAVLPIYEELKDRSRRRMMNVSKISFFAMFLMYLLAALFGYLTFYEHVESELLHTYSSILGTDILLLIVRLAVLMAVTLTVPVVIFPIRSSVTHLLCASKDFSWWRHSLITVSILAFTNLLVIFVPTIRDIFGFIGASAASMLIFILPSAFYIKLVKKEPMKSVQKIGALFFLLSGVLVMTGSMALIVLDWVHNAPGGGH
Protocol: Derivatization of AAs and analogs using o-phthalaldehyde (OPA) and 2-mercaptoethanol (2-ME) to make fluorescent derivatives was used to measure the intracellular amounts of AAs and analogs following uptake in hyperosmotically treated PC-3 cells. Before starting the experiment, the medium was aspirated, and the cells were preincubated in HBSS + for 15 min at 37 °C and 220 rpm. The cells were then incubated with 500 µL HBSS+ (background) or HBSS + containing AAs or analogs at given concentrations for 30 min at 37 °C and 220 rpm. After aspirating the donor solutions, the cells were washed thrice with 500 µL of ice-cold PBS while keeping the cells on ice. 200 µL of ice-cold 1x-trypsin was added to each well and allowed to distribute for 20–30 min while keeping the cells on ice. The plate was then transferred to an incubating microplate shaker at 37 °C and 220 rpm for about 8 min or until the cells had detached. 300 µL of ice-cold PBS was added to each well to resuspend the cells and transfer them to centrifuge tubes. The cells were centrifuged at 1000 G for 5 min (4 °C), the supernatant was removed, the cells were resuspended in 300 µL ice-cold PBS, and then centrifuged again at 1000 G for 5 min (4 °C). After removing the supernatant, the cell pellet was lysed by adding 100 µL of 80% methanol (20% ultrapure water) and placing the tubes in an ultrasonic bath for 10 min. The tubes were then centrifuged at 15,000 G for 15 min (4 °C) and the resulting supernatant was used for analysis.
The OPA reagent was prepared by spiking with 2 µL 2-ME per mL of OPA regent and was considered stable for use within one day. 10 µL of the cell samples or standards containing a mixture of the AAs and analogs of interest were placed in HPLC vials with 100 µL inserts. […] The autosampler kept the samples at 10 °C and the pretreatment function was used to automatically mix the samples with 10 µL of the OPA reagent and wait 4 min before loading 2 µL onto a YMC-Triart C18 column (75 × 3.0 mm, 1.9 μm, Mikrolab Aarhus, Viby J, Denmark). […] The fluorescence detector was set to excite at 350 nm and detect at 450 nm.
The resulting chromatograms were integrated and the area under the curve (AUC) of the standard samples was used to generate standard curves to determine the concentration of AAs and analogs in the cell samples. […] Amino acid levels detected in the background cell samples were subtracted from the other cell samples.

[3] = biological target: T1, SNAT2; test: Inhibition of SNAT2-mediated 3H-glycine uptake in hyperosmotically treated PC-3 cells; assay type: cell-based
Protocol: Where Y is the % uptake, X is the concentration of the inhibitor, Top and Bottom are the top and bottom plateau respectively, and IC50 is the half maximal inhibitory concentration. These studies were performed in at least 3 independent cell passages (n = 3) and a curve was defined for each independent passage. However, for each compound, the top and bottom were constrained to be the same amongst the different cell passages.

[4] = biological target: T1, SNAT2; test: FLIPR membrane potential (FMP) assay in PC-3 cells; assay type: cell-based; settings: hyperosmotically treated PC-3 cells
Protocol: PC-3 cells exposed to hyperosmotic media for 24 h were used to identify SNAT2 substrates in the FMP assay. The media was aspirated, and the cells were preincubated in HBSS + for 10 min at 37 °C and 220 rpm. Then the buffer was aspirated, and cells were then incubated in 50 µL HBSS + containing 0.55 mg ⋅ mL^− 1 (1x) FMP probe (Blue component A from Molecular Devices, San Jose, CA, USA) for 30 min at 37 °C and 220 rpm. […] First, the baseline was measured for 30 s by measuring each well every 3 s. The plate was then removed from the reader and 50 µL of substrate solutions containing 0.55 mg ⋅ mL^− 1 FMP probe was added. These solutions were prepared by mixing equal parts solution containing 2x FMP probe and solutions containing 4x the final concentration of substrate. […] Following this, the baseline of the next column was measured and followed the same procedure as just described.
For the FMP data, the baseline was defined as the mean fluorescence of the first data point before substrate addition. The baseline of each well was then subtracted from the data point to get the ΔF. Plotting ΔF as a function of time and calculating the area under the curve (AUC) after substrate addition was used as a measure of SNAT2 activity.

[5] = test system: PC-3 cells; test: CellTiter-Glo viability assay; assay type: cell-based, human; settings: 20 mM, after 10 min of exposure, hyperosmotically treated PC-3 cells
Protocol: ^3H-glycine uptake in hyperosmotically treated PC-3 cells was performed as previously described (Jakobsen et al. [2023]). 5-minute uptake of 0.5 µCi ⋅ mL^− 1 3H-glycine (11.1 nM) was used, and each uptake was normalized to the uptake obtained in a control situation (31.2 ± 5.7 fmol ⋅ cm^− 2 ⋅ min^− 1) without subtracting the background uptake (2.62 ± 0.67 fmol ⋅ cm^− 2 ⋅ min^− 1). Compounds that inhibited uptake by more than 20% at the highest tested concentrations were tested in the CellTiter-Glo viability assay (Promega, Madison, WI, USA), to rule out that the observed inhibition was not caused by reduced cell viability (Fig. S1 in Supplementary Information SI).
Fig. S1 Cell viability of hyperosmotically treated PC-3 cells after 10 min incubation with various amino acids and analogs using the CellTiter-Glo assay. […] The plate was placed in a CLARIOstar® Plus plate reader from BMG LABTECH (Ortenberg, Germany) at room temperature and was then shaken for 2 minutes at 220 rpm. Luminescence was measured after 0, 5, 10, and 15 minutes. Background luminescence (obtained from adding CellTiter-Glo reagent to HBSS+ containing wells without cells) was subtracted from the sample luminescence and normalized to control wells only exposed to HBSS+ to determine the % viability. […] Statistically significant differences from the control detected by one-way ANOVA are shown (*: p < 0.05).

SMILES: C[C@H](N)C(=O)OCc1ccccc1 [L-Alanine benzyl ester, L-alanine benzyl ester hydrochloride]
- stability in aqueous solution [1]: stability was confirmed
- fold change of intracellular accumulation in absence vs presence of 10 mM L-glutamine [2]: 6.7 fold
- IC50 ([3]; hyperosmotically treated PC-3 cells, 5 min uptake of 11.1 nM 3H-glycine, pH 7.4, read-out: IC50): 390 µM
- inhibition of 3H-glycine uptake at different pH levels ([3]; pH 6.8, 7.4 and 8.0, 0.4 mM L-alanine benzyl ester or 0.2 mM L-alanine, two-way ANOVA): no significant differences in inhibition at the different pH levels
- AUC of fluorescence response-time curve ([4]; 5 mM compound): 8.1 ± 1.4 10^5 RFU ∙ s
- AUC of fluorescence response-time curve ([4]; 10 mM compound): -1.4 ± 3.2 10^5 RFU ∙ s
- AUC, % of 10 mM L-alanine ([4]; 10 mM compound): -6.6 ± 14%
- response in the FMP assay (stimulation of SNAT2 activity) ([4]; result in words): little or no stimulation of SNAT2 activity
- decrease in cell viability [5]: 23%
